Assay results from patent US12692249B2, “WDR5 inhibitors and modulators” (Vanderbilt University, priority 2019, dated 2026).

What follows are compounds tested on MV4:11 human cancer cell lines (assay: Cellular viability / anti-proliferative assay, CellTiter-Glo, 5 day protocol). Details: Homo sapiens, MV4-11, 120 h, MV4:11 cells; 5 day incubation; CellTiter-Glo; mean of at least two replicates; read-out: GI50 on cellular proliferation of MV4:11 human cancer cell lines.
Type: cell-based
Description: Cellular Viability of Human Tumor Cell Lines
Anti-proliferative activity using MLL-harboring cell lines. MV-4-11 and K562 cells are grown in IMDM media supplemented with 10% FBS and 1% penicillin/streptomycin, Molm-13 cells are cultured in RPMI-1640 media supplemented with 10% FBS and 1% penicillin/streptomycin. Viability assays are performed by dispensing 200 cells at 7200 cells/mL into each well of an opaque 384-well plate and adding compounds at the indicated concentrations in a final volume, of 32 μL. and a final concentration of DMSO of 0.3% for all samples. A certain range of compound concentrations is made through a series of 2-fold dilutions starting 30 μM at the highest, total 22 dilutions. After a set incubation period, 5 day protocol, the viability of cells in each well is assessed using the CellTiter-Glo assay (Promega), read on a 96 Microplane Luminometer (Cytation 3, BioTek). Serial dilutions of each cell type are performed in all assays to generate standard curves and the final densities of cells are determined within the dynamic range of the instrument. GI50 values are calculated based on XLfit software (IDBS, Guildford, UK) with Sigmoidal Dose-Response Model. Each compound is tested in minimum of two replicates. Data are expressed as mean.

Row | GI50 [nM] | Structure (SMILES)
1 | < 20 | CCc1cc(C2CCN(C)CC2)c2nc(C)cc(N3CCc4c(cc(Cn5ccnc5)cc4-c4cn(C)nc4C(F)(F)F)C3=O)c2c1 [Example 148, 7-((1H-Imidazol-1-yl)methyl)-2-(6-ethyl-2-methyl-8-(1-methylpiperidin-4-yl)quinolin-4-yl)-5-(1-methyl-3-(trifluoromethyl)-1H-pyrazol-4-yl)-3,4-dihydroisoquinolin-1(2H)-one]
2 | 33 | COc1cc(C2=CCN(C)CC2)c2nc(C)cc(N3CCc4c(cc(Cn5ccnc5)cc4-c4cn(C)nc4C(F)(F)F)C3=O)c2c1 [Example 154, 7-((1H-Imidazol-1-yl)methyl)-2(6-methoxy-2-methyl-8-(1-methyl-1,2,3,6-tetrahydropyridin-4-yl)quinolin-4-yl)-5-(1-methyl-3-(trifluoromethyl)-1H-pyrazol-4-yl)-3,4-dihydroisoquinolin-1(2H)-one]
3 | 59 | CCc1cc(C(=O)Nc2nccn2C)c2nccc(N3CCc4c(cc(Cn5ccnc5)cc4-c4cn(C)nc4C(F)(F)F)C3=O)c2c1 [Example 161, 4-(7-((1H-Imidazol-1-yl)methyl)-5-(1-methyl-3-(trifluoromethyl)-1H-pyrazol-4-yl)-1-oxo-3,4-dihydroisoquinolin-2(1H)-yl)-6-ethyl-N-(1-methyl-1H-imidazol-2-yl)quinoline-8-carboxamide]
4 | 88 | CCOC(=O)c1cc(CC)cc2c(N3CCc4c(cc(Cn5ccnc5)cc4-c4cn(C)nc4C(F)(F)F)C3=O)cc(C)nc12 [Example 162, ethyl 4-(7-((1H-imidazol-1-yl)methyl)-5-(1-methyl-3-(trifluoromethyl)-1H-pyrazol-4-yl)-1-oxo-3,4-dihydroisoquinolin-2(1H)-yl)-6-ethyl-2-methylquinoline-8-carboxylate]
5 | 56 | CCc1cc(C(=O)NCc2ccncc2)c2nccc(N3CCc4c(cc(Cn5ccnc5)cc4-c4cn(C)nc4C(F)(F)F)C3=O)c2c1 [Example 163, 4-(7-((1H-Imidazol-1-yl)methyl)-5-(1-methyl-3-(trifluoromethyl)-1H-pyrazol-4-yl)-1-oxo-3,4-dihydroisoquinolin-2(1H)-yl)-6-ethyl-N-(pyridin-4-ylmethyl)quinoline-8-carboxamide]
6 | 155 | CCc1cc(C(=O)NC2CCCC2)c2nccc(N3CCc4c(cc(Cn5ccnc5)cc4-c4cn(C)nc4C(F)(F)F)C3=O)c2c1 [Example 164, 4-(7-((1H-Imidazol-1-yl)methyl)-5-(1-methyl-3-(trifluoromethyl)-1H-pyrazol-4-yl)-1-oxo-3,4-dihydroisoquinolin-2(1)-yl)-N-cyclopentyl-6-ethylquinoline-8-carboxamide]
7 | 46 | CCc1cc(C(=O)NCCO)c2nccc(N3CCc4c(cc(Cn5ccnc5)cc4-c4cn(C)nc4C(F)(F)F)C3=O)c2c1 [Example 168, 4-(7-((1H-Imidazol-1-yl)methyl)-5-(1-methyl-3-(trifluoromethyl)-1H-pyrazol-4-yl)-1-oxo-3,4-dihydroisoquinolin-2(1H)-yl)-6-ethyl-N-(2-hydroxyethyl)quinoline-8-carboxamide]
8 | 212 | CCc1cc(C(=O)NCC2CCCC2)c2nccc(N3CCc4c(cc(Cn5ccnc5)cc4-c4cn(C)nc4C(F)(F)F)C3=O)c2c1 [Example 170, 4-(7-((1H-Imidazol-1-yl)methyl)-5-(1-methyl-3-(trifluoromethyl)-1H-pyrazol-4-yl)-1-oxo-3,4-dihydroisoquinolin-2(1H)-yl)-N-(cyclopentylmethyl)-6-ethylquinoline-8-carboxamide]
9 | < 20 | CCc1cc(C(=O)NC)c2nc(C)cc(N3CCc4c(cc(Cn5ccnc5)cc4-c4cn(C)nc4C(F)(F)F)C3=O)c2c1 [Example 178]
10 | 68 | COc1cc(-c2n[nH]c(=O)o2)c2nc(C)cc(N3CCc4c(cc(Cn5ccnc5)cc4-c4cn(C)nc4C(F)(F)F)C3=O)c2c1 [Example 180, 5-(4-(7-((1H-Imidazol-1-yl)methyl)-5-(1-methyl-3-(trifluoromethyl)-1H-pyrazol-4-yl)-1-oxo-3,4-dihydroisoquinolin-2(1H)-yl)-6-methoxy-2-methylquinolin-8-yl)-1,3,4-oxadiazol-2(3-1)-one]
11 | 55 | CCc1cc(OC)c2nccc(N3CCc4c(cc(Cn5ccnc5)cc4-c4cccnc4C(F)(F)F)C3=O)c2c1 [Example 185, 7-((1H-Imidazol-1-yl)methyl)-2-(6-ethyl-8-methoxyquinolin-4-yl)-5-(2-(trifluoromethyl)pyridin-3-yl)-3,4-dihydroisoquinolin-1(2H)-one]
12 | < 20 | COc1cc(N2CCC(NC(C)=O)CC2)c2nc(C)cc(N3CCc4c(cc(Cn5ccnc5)cc4-c4cn(C)nc4C(F)(F)F)C3=O)c2c1 [Example 192, N-(1-(4-(7-((1H-Imidazol-1-yl)methyl)-5-(1-methyl-3-(trifluoromethyl)-1H-pyrazol-4-yl)-1-oxo-3,4-dihydroisoquinolin-2(1H)-yl)-6-methoxy-2-methylquinolin-8-yl)piperidin-4-yl)acetamide]
13 | < 20 | CCc1cc(C(=O)NC2CCN(C)C2)c2nccc(N3CCc4c(cc(Cn5ccnc5)cc4-c4cn(C)nc4C(F)(F)F)C3=O)c2c1 (stereo not drawn) [Example 193, 4-(7-((1H-Imidazol-1-yl)methyl)-5-(1-methyl-3-(trifluoromethyl)-1H-pyrazol-4-yl)-1-oxo-3,4-dihydroisoquinolin-2(1H)-yl)-6-ethyl-N-(1-methylpyrrolidin-3-yl)quinoline-8-carboxamide]
14 | > 10000 | COc1cc(-c2nnn[nH]2)c2nc(C)cc(N3CCc4c(cc(Cn5ccnc5)cc4-c4cn(C)nc4C(F)(F)F)C3=O)c2c1 [Example 196, 7-((1H-Imidazol-1-yl)methyl)-2-(6-methoxy-2-methyl-8-(1H-tetrazol-5-yl)quinolin-4-yl)-5-(1-methyl-3-(trifluoromethyl)-1H-pyrazol-4-yl)-3,4-dihydroisoquinolin-1(2H)-one]
15 | < 20 | COc1cc(C(N)=O)c2nc(C)cc(N3CCc4c(cc(Cn5ccnc5)cc4-c4cn(C)nc4C(F)(F)F)C3=O)c2c1 [Example 198, 4-(7-((1H-Imidazol-1-yl)methyl)-5-(1-methyl-3-(trifluoromethyl)-1H-pyrazol-4-yl)-1-oxo-3,4-dihydroisoquinolin-2(1H)-yl)-6-methoxy-2-methylquinoline-8-carboxamide]
16 | 131 | CCc1cc(C(=O)NC)c2nccc(N3CCc4c(cc(Cn5ccnc5)cc4-c4cccnc4C(F)(F)F)C3=O)c2c1 [Example 199, 4-(7-((1H-imidazol-1-yl)methyl)-1-oxo-5-(2-(trifluoromethyl)pyridin-3-yl)-3,4-dihydroisoquinolin-2(1H)-yl)-6-ethyl-N-methylquinoline-8-carboxamide]
17 | < 20 | COc1cc(C#N)c2nccc(N3CCc4c(cc(Cn5ccnc5)cc4-c4cn(C)nc4C(F)(F)F)C3=O)c2c1 [Example 205]
18 | < 20 | CCc1cc(N2CCN(CCOC)CC2)c2nccc(N3CCc4c(cc(Cn5ccnc5)cc4-c4cn(C)nc4C(F)(F)F)C3=O)c2c1 [Example 210]
19 | < 20 | CCc1cc(N2CCN(C3COC3)CC2)c2nccc(N3CCc4c(cc(Cn5ccnc5)cc4-c4cn(C)nc4C(F)(F)F)C3=O)c2c1 [Example 215, 7-((1H-Imidazol-1-yl)methyl)-2-(6-ethyl-8-(4-(oxetan-3-yl)piperazin-1-yl)quinolin-4-yl)-5-(1-methyl-3-(trifluoromethyl)-1H-pyrazol-4-yl)-3,4-dihydroisoquinolin-1(2H)-one]
20 | < 20 | CCc1cc(C(=O)NC2CN(C(=O)c3ccncc3)C2)c2nccc(N3CCc4c(cc(Cn5ccnc5)cc4-c4cn(C)nc4C(F)(F)F)C3=O)c2c1 [Example 225]
21 | 43 | COc1cc(C(=O)NC2CN(C(C)=O)C2)c2nccc(N3CCc4c(cc(Cn5ccnc5)cc4-c4cn(C)nc4C(F)(F)F)C3=O)c2c1 [Example 226, 4-(7-((1H-Imidazol-1-yl)methyl)-5-(1-methyl-3-(trifluoromethyl)-1H-pyrazol-4-yl)-1-oxo-3,4-dihydroisoquinolin-2(1H)-yl)-N-(1-acetylazetidin-3-yl)-6-methoxyquinoline-8-carboxamide]
22 | < 20 | COc1cc(C(=O)NC2CN(C(=O)c3cscn3)C2)c2nccc(N3CCc4c(cc(Cn5ccnc5)cc4-c4cn(C)nc4C(F)(F)F)C3=O)c2c1 [Example 227]
23 | < 20 | CCc1cc(C(=O)NC2CN(C(C)=O)C2)c2nccc(N3CCc4c(cc(Cn5ccnc5)cc4-c4cn(C)nc4C(F)(F)F)C3=O)c2c1 [Example 241]

Same assay, conditions: Homo sapiens, MV4-11, 120 h, read-out: GI50 on cellular proliferation of MV4:11 human cancer cell lines

Row | Structure (SMILES) | GI50 [nM]
24 | CCc1cc(C(=O)NCCN(C)C)c2nccc(N3CCc4c(cc(Cn5ccnc5)cc4-c4cn(C)nc4C(F)(F)F)C3=O)c2c1 [Example 166, 4-(7-((1H-Imidazol-1-yl)methyl)-5-(1-methyl-3-(trifluoromethyl)-1H-pyrazol-4-yl)-1-oxo-3,4-dihydroisoquinolin-2(1H)-yl)-N-(2-(dimethylamino)ethyl)-6-ethylquinoline-8-carboxamide] | < 20
